Results published in PMC9814457 (2022).

Test system: QDJ1 (model quadruplex-duplex junction) (DNA, G4) GGTTGGCGCGAAGCATTCGCGGGTTGG
Test: NMR ligand protection (53-compound library, HSQC difference)
Settings: 20 mM KCl; 20 mM K2HPO4, pH 7.0; 30 μM DNA

binding: yes
SMILES: NCc1cc(CN)cc(CN)c1
